Results on 17 molecules are retold here after patent publication US10975068B2, “6-aminopyridin-3-yl thiazoles as modulators of RORγT” (Janssen Pharmaceutica NV, priority 2016, dated 2021).

Like-named read-outs stand apart in the source and are kept apart here.

Assay [1] has as its target human RORγt ligand binding domain (RORγt LBD) (Homo sapiens (Human), UniProt P51449). Put plainly: RORγt ThermoFluor® assay (thermal shift binding). The procedure, abridged:
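His-tagged human RORγt LBD (0.065 mg/mL) with 60 μM 1,8-ANS in 100 mM Hepes pH 7.0, 10 mM NaCl, 2.5 mM GSH, 0.002% Tween-20 was heated at 1 °C/min.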
For orientation: DSF heats the sample and reads unfolding from a dye or from intrinsic fluorescence.

The target of assay [2] is T1, full-length human RORγt (Homo sapiens (Human), UniProt P51449). Put plainly: RORγt (full-length human) reporter assay, Conditions A. Particulars: Conditions A; for IC50: read-out: RORγt (FL) Reporter Assay A, IC50; for inhibition at 6 µM: read-out: RORγt (FL) Reporter Assay A, % inhibition @ 6 μM; for RORγt (FL) Reporter Assay A, % inhibition (value marked **): marked **: footnote not shown. It is filed as cell-based. An excerpt:
RORγt (Full-Length Human) Reporter Assay:
Cells used in this assay were transiently co-transfected with three different plasmids, one expressing the GAL4-DNA binding domain (DBD)-RORγt fusion protein under control of a CMV promoter (NH2-Gal4-DBD:RORC-COOH in pCMV-BD, Stratagene #211342), and two reporter plasmids—the firefly luciferase reporter under control of a GAL4 promoter (pFR-Luc 2×GAL4) and Renilla luciferase reporter under control of CMV promoter (pRL-CMV, Promega # E2261). The full-length coding sequence was used for human RORγt, i.e., nucleotides 142-1635 of human RORγt, transcript variant 2, NCBI Accession: NM_001001523.1 (SEQ ID NO:1). HEK293T cells were plated at 35000 per well in 96-well plate in medium of MEM with 8.6% FBS. After 18-22 hours incubation, the transfection was carried out by using a PEI solution with 170.5 ng total DNA/well (50 ng pCMV-BD-ROR plus 20 ng of pFR-Luc reporter and 0.5 ng of pRL-CMV reporter plus 100 ng Carrier DNA (Clontech #630440) for each well). 4-6 hours after transfection, cells were treated with compounds for overnight in the medium with final concentration of FBS 1.1% and DMSO 0.1%. After overnight (16 to 20 hours) incubation, media were removed and cells were lysed with 20 μL 1× Passive Lysis Buffer (Promega) for 10-15 minutes. Luminescence was measured using a BMG LUMIstar OPTIMA plate reader, after addition of 75 μL/well firefly luciferase buffer, followed by 75 μL/well Renilla luciferase buffer. To calculate the effect of compounds on RORγt activity, firefly values were normalized against values of DMSO only and values of reference compound at saturating concentration, then further normalized against Renilla signals. IC50s were generated by plotting final Renilla normalized data against compound concentration and percent inhibition was calculated against DMSO control.
In general terms: Reporter assays use an easily measured gene product as a stand-in for the process of interest.

Assay [3] addresses T1, full-length human RORγt. Put plainly: RORγt (full-length human) reporter assay, Conditions B or C. The class given is cell-based. The procedure, abridged: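 HEK293T cells transiently co-transfected with GAL4-DBD–full-length human RORγt (nt 142-1635, NM_001001523.1) plus GAL4-firefly and CMV-Renilla luciferase reporters; compounds added 4-6 h post-transfection for 16-20 h in 1.3% FBS, 0.1% DMSO. Firefly signal normalized to DMSO and saturating reference compound, then to Renilla; IC50 from concentration plots.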

Setting [4] is: read-out: ThermoFluor® Assay, Kd.

T1 sequence (P51449 other isoform, or with tags, fused parts or gaps): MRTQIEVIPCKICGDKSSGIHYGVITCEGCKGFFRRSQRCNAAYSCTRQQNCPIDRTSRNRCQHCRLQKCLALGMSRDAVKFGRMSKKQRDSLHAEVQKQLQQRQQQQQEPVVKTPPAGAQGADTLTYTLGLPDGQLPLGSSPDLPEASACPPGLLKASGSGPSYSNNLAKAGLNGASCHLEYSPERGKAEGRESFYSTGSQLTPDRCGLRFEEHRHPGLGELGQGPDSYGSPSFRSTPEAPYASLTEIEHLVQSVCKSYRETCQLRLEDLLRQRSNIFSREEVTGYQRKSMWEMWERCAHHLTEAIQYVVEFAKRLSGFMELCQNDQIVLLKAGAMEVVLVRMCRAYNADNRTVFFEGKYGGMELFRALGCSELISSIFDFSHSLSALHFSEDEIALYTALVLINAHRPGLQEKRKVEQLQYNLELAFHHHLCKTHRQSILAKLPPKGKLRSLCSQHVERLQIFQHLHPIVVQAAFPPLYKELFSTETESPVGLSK
human RORγt ligand binding domain (RORγt LBD), sequence (P51449 other isoform, or with tags, fused parts or gaps): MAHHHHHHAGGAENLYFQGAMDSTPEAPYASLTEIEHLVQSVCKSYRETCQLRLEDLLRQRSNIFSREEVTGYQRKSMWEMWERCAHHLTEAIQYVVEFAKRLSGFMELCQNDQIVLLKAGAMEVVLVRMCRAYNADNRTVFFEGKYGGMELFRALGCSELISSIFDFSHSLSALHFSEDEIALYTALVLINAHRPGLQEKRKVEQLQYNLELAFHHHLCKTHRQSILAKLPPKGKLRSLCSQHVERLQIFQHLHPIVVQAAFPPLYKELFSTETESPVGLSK

Broadly, the Kd is the equilibrium constant for the complex coming apart. Usually IC50 stands for the concentration at which inhibition is half-maximal. Usually inhibition stands for the relative decrease from the control value, in per cent. Take `CC(C)(O)CNC(=O)c1nc(C(=O)N2CCC(F)CC2)c(-c2cnc(NC3CCCC3)cc2C(F)(F)F)s1` [Example 10, 5-(6-(Cyclopentylamino)-4-(trifluoromethyl)pyridin-3-yl)-4-(4-fluoropiperidine-1-carbonyl)-N-(2-hydroxy-2-methylpropyl)thiazole-2-carboxamide]: the Kd in assay [1] (setting [4]) amounted to 8.1 nM. Moreover, on full-length human RORγt [2], the IC50 came to 71 nM and the inhibition at 6 µM is 108%.

For the molecule `CC(C)(O)CNC(=O)c1nc(C(=O)N2CCC(F)CC2)c(-c2cnc(NC3CCCCC3)c(C#N)c2C(F)(F)F)s1` [Example 68, 5-(5-Cyano-6-(cyclohexylamino)-4-(trifluoromethyl)pyridin-3-yl)-4-(4-fluoropiperidine-1-carbonyl)-N-(2-hydroxy-2-methylpropyl)thiazole-2-carboxamide], in assay [1] (setting [4]), the equilibrium dissociation constant (Kd) is 370 nM. Further, on full-length human RORγt [2], the concentration for half-maximal inhibition (IC50) is 1100 nM and the inhibition at 6 µM is 70%.

For `CC(C)(O)CNC(=O)c1nc(C(=O)N2CCC(F)CC2)c(-c2cnc(NC3CCC3)cc2C(F)(F)F)s1` [Example 9, 5-(6-(Cyclobutylamino)-4-(trifluoromethyl)pyridin-3-yl)-4-(4-fluoropiperidine-1-carbonyl)-N-(2-hydroxy-2-methylpropyl)thiazole-2-carboxamide], the Kd in assay [1] (setting [4]) came to 77 nM. At full-length human RORγt [2], the half-inhibitory concentration (IC50) stood at 330 nM and the inhibition at 6 µM came out at 104%.

Turning to `CC(C)(O)CNC(=O)c1nc(C(=O)N2CCC(F)CC2)c(-c2cnc(NC3CC4(CCC4)C3)cc2C(F)(F)F)s1` [Example 24, 4-(4-Fluoropiperidine-1-carbonyl)-N-(2-hydroxy-2-methylpropyl)-5-(6-(spiro[3.3]heptan-2-ylamino)-4-(trifluoromethyl)pyridin-3-yl)thiazole-2-carboxamide], in assay [1] (setting [4]), the Kd stood at 20 nM. For the same molecule, at full-length human RORγt [2], the half-maximal inhibitory concentration (IC50) came to 97 nM and the inhibition at 6 µM was found to be 107%.

Turning to `CC(C)(O)CNC(=O)c1nc(C(=O)N2CCC(F)CC2)c(-c2cnc(NC3CC(F)(F)C3)cc2C(F)(F)F)s1` [Example 21, 5-(6-((3,3-Difluorocyclobutyl)amino)-4-(trifluoromethyl)pyridin-3-yl)-4-(4-fluoropiperidine-1-carbonyl)-N-(2-hydroxy-2-methylpropyl)thiazole-2-carboxamide], the inhibition at 6 µM on full-length human RORγt [2] was determined as 100%.

As to `Cc1c(-c2sc(C(=O)NCC(C)(C)O)nc2C(=O)N2CCC(F)CC2)cnc(NC2CCCCC2)c1C#N` [Example 60, 5-(5-Cyano-6-(cyclohexylamino)-4-methylpyridin-3-yl)-4-(4-fluoropiperidine-1-carbonyl)-N-(2-hydroxy-2-methylpropyl)thiazole-2-carboxamide], the dissociation constant (Kd) in assay [1] (setting [4]) was 160 nM. In addition, at full-length human RORγt [2], the half-maximal inhibitory concentration (IC50) is 430 nM and the inhibition at 6 µM stood at 90.3%.

Regarding `C[C@H]1CC(F)(F)CN1C(=O)c1nc(C(=O)NCC(C)(C)O)sc1-c1cnc(NC2CCCCC2)cc1C(F)(F)F` [Example 11, (S)-5-(6-(Cyclohexylamino)-4-(trifluoromethyl)pyridin-3-yl)-4-(4,4-difluoro-2-methylpyrrolidine-1-carbonyl)-N-(2-hydroxy-2-methylpropyl)thiazole-2-carboxamide], the Kd in assay [1] (setting [4]) is 2.6 nM. At full-length human RORγt [2], the “RORγt (FL) Reporter Assay A, % inhibition (value marked **)” value was 107** % and the IC50 was determined as 17 nM.

Consider `CC(C)(O)CCNC(=O)c1nc(C(=O)N2CCC(F)(F)CC2)c(-c2cnc(NC3CCCCC3)cc2C(F)(F)F)s1` [Example 15, 5-(6-(Cyclohexylamino)-4-(trifluoromethyl)pyridin-3-yl)-4-(4,4-difluoropiperidine-1-carbonyl)-N-(3-hydroxy-3-methylbutyl)thiazole-2-carboxamide], for which the Kd in assay [1] (setting [4]) was 7.5 nM. In addition, at full-length human RORγt [2], the “RORγt (FL) Reporter Assay A, % inhibition (value marked **)” value is recorded as 105** % and the IC50 worked out at 39 nM.

Take `CC(C)(O)CNC(=O)c1nc(C(=O)N2CCC(F)CC2)c(-c2cnc(NC3CCCCC3)c(C#N)c2)s1` [Example 58, 5-(5-Cyano-6-(cyclohexylamino)pyridin-3-yl)-4-(4-fluoropiperidine-1-carbonyl)-N-(2-hydroxy-2-methylpropyl)thiazole-2-carboxamide]: the Kd in assay [1] (setting [4]) stood at 170 nM. On full-length human RORγt [2], the IC50 was 770 nM and the inhibition at 6 µM worked out at 93%.

For the molecule `C[C@H]1CCCCN1C(=O)c1nc(C(=O)NCC(C)(C)O)sc1-c1cnc(NC2CCCCC2)cc1C(F)(F)F` [Example 5, (S)-5-(6-(Cyclohexylamino)-4-(trifluoromethyl)pyridin-3-yl)-N-(2-hydroxy-2-methylpropyl)-4-(2-methylpiperidine-1-carbonyl)thiazole-2-carboxamide], in assay [1] (setting [4]), the Kd was 0.25 nM. For the same molecule, on full-length human RORγt [2], the IC50 came out at 9 nM and the inhibition at 6 µM was found to be 104%.

In the case of `CC(C)(O)CNC(=O)c1nc(C(=O)N2CCC(F)CC2)c(-c2cnc(NC3CCCC(F)(F)C3)cc2C(F)(F)F)s1` (stereo not shown) [Example 23, 5-(6-((3,3-Difluorocyclohexyl)amino)-4-(trifluoromethyl)pyridin-3-yl)-4-(4-fluoropiperidine-1-carbonyl)-N-(2-hydroxy-2-methylpropyl)thiazole-2-carboxamide], the equilibrium dissociation constant (Kd) in assay [1] (setting [4]) is 30 nM. Further, at full-length human RORγt [2], the IC50 amounted to 79 nM and the inhibition at 6 µM was found to be 96%.

For `COc1cc(-c2sc(C(=O)NCC(C)(C)O)nc2C(=O)N2CCC(F)CC2)cnc1NC1CCCCC1` [Example 59, 5-(6-(Cyclohexylamino)-5-methoxypyridin-3-yl)-4-(4-fluoropiperidine-1-carbonyl)-N-(2-hydroxy-2-methylpropyl)thiazole-2-carboxamide], on full-length human RORγt [2], the IC50 was 700 nM and the inhibition at 6 µM came to 88%.

In the case of `CCc1cc(NC2CCCCC2)ncc1-c1sc(C(=O)NCC(C)(C)O)nc1C(=O)N1CCC(F)CC1` [Example 70, 5-(6-(cyclohexylamino)-4-ethylpyridin-3-yl)-4-(4-fluoropiperidine-1-carbonyl)-N-(2-hydroxy-2-methylpropyl)thiazole-2-carboxamide], the Kd in assay [1] (setting [4]) was 36 nM. On full-length human RORγt [2], the IC50 is 130 nM and the inhibition at 6 µM was found to be 108%.

For `COc1cc(NC2CCCCC2)ncc1-c1sc(C(=O)NCC(C)(C)O)nc1C(=O)N1CCC(F)CC1` [Example 63, 5-(6-(Cyclohexylamino)-4-methoxypyridin-3-yl)-4-(4-fluoropiperidine-1-carbonyl)-N-(2-hydroxy-2-methylpropyl)thiazole-2-carboxamide], on full-length human RORγt [2], the concentration for half-maximal inhibition (IC50) is 250 nM and the inhibition at 6 µM amounted to 96%.

For `CC(C)c1cc(NC2CCCCC2)ncc1-c1sc(C(=O)NCC(C)(C)O)nc1C(=O)N1CCC(F)CC1` [Example 65, 5-(6-(Cyclohexylamino)-4-isopropylpyridin-3-yl)-4-(4-fluoropiperidine-1-carbonyl)-N-(2-hydroxy-2-methylpropyl)thiazole-2-carboxamide], on full-length human RORγt [2], the IC50 is 210 nM and the inhibition at 6 µM came out at 103%.

Turning to `CC[C@H](Nc1cc(C(F)F)c(-c2sc(C(=O)N[C@@H]3CCC[C@H]3O)nc2C(=O)N2CCC[C@@H]2C)cn1)C(F)(F)F` [Example 231, 5-[4-(Difluoromethyl)-6-[[(1S)-1-(trifluoromethyl)propyl]amino]-3-pyridyl]-N-[(1R,2R)-2-hydroxycyclopentyl]-4-[(2S)-2-methylpyrrolidine-1-carbonyl]thiazole-2-carboxamide], in assay [1] (setting [4]), the Kd amounted to 1.4 nM. The “RORγt (FL) Reporter Assay B or C, % inhibition (value marked *)” value on full-length human RORγt [3] (Conditions B or C, marked *: footnote not given) was 92* %. Also, on full-length human RORγt [3] (Conditions B or C, read-out: RORγt (FL) Reporter Assay B or C, IC50), the IC50 came out at 58 nM.

As for `C[C@H](Nc1cc(C(F)(F)F)c(-c2sc(C(=O)N[C@H]3COC[C@H]3O)nc2C(=O)N2C3CCC2CC3)cn1)C(F)(F)F` (single isomer, unassigned) [Example 255, 4-((1s,4s)-7-Azabicyclo[2.2.1]heptane-7-carbonyl)-N-((3S*,4S*)-4-hydroxytetrahydrofuran-3-yl)-5-(4-(trifluoromethyl)-6-(((S)-1,1,1-trifluoropropan-2-yl)amino)pyridin-3-yl)thiazole-2-carboxamide], the dissociation constant (Kd) in assay [1] (ThermoFluor® Assay, Kd) came out at 16 nM. In addition, the IC50 against full-length human RORγt [3] (RORγt (FL) Reporter Assay B or C, IC50) is 160 nM. On full-length human RORγt [3] (at 1 μM compound concentration, read-out: RORγt (FL) Reporter Assay B or C, % inhibition), the inhibition at 1 µM worked out at 78%.
